Patent US9822147B2, “Methods of treating ophthalmic diseases using NPR-B agonists” (priority 2009, dated 2017)
Numbered stars: 1 amine (or outer) side, 2 acyl side, 3 side chain; on linkers, the order of the positions; unused ones are H or OH. Square brackets hold non-standard residues; d marks the D form. Peptide text beside a SMILES is read from it. * marks the point of attachment. X2 = O=C([C@H]1CCCN([*:1])C1)[*:2]; Hyp = O=C(O)[C@@H]1C[C@@H](O)CN1; NMeL = CN[C@@H](CC(C)C)C(=O)O; dOrn = NCCC[C@@H](N)C(=O)O; Octanoyl = CCCCCCCC(=O)*

biological target: T1, NPR-B (Homo sapiens, UniProt P20594); assay: NPR-B induced production of cyclic GMP in human glaucoma trabecular meshwork cells (GTM-3); assay type: cell-based; conditions: not given
T1 construct: a functional assay using endogenously NPR-B expressing GTM-3 cells; endogenous in cells; host or cells: GTM-3 (human glaucoma trabecular meshwork cells)
T1 sequence (P20594 23-1047): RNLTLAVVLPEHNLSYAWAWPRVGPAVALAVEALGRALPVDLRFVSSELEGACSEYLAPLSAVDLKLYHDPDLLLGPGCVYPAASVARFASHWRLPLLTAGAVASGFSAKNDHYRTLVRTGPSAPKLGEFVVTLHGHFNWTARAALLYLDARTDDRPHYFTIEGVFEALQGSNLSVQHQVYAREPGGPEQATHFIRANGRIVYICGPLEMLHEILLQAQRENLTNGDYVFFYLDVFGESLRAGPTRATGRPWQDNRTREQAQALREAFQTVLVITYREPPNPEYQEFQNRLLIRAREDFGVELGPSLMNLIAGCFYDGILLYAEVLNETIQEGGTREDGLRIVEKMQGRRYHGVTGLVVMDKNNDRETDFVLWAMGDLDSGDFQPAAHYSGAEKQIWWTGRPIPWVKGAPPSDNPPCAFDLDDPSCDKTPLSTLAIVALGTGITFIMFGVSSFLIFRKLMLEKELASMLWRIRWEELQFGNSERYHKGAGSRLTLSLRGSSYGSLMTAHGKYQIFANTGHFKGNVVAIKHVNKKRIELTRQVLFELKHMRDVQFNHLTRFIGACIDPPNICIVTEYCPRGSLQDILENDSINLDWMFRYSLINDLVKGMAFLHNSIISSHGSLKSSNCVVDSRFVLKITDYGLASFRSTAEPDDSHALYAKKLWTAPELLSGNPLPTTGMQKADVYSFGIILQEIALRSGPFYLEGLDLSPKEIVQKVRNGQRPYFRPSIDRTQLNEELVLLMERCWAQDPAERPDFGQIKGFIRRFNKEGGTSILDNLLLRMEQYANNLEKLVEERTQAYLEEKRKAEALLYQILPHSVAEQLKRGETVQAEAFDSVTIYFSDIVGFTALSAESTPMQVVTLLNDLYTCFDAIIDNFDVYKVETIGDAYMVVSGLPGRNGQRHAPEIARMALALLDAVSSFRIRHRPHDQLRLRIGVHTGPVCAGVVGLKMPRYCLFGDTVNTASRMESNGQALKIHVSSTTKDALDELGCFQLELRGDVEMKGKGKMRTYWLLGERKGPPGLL

SMILES	EC50 [nM]
CCCCCCCC(=O)N[C@H](C)C(=O)N[C@@H](Cc1ccccc1)C(=O)NCC(=O)N[C@@H](CC(C)C)C(=O)N1C[C@H](N)C[C@H]1C(=O)N[C@@H](CC(C)C)C(=O)N[C@@H](CC(=O)O)C(=O)N[C@@H](CCCNC(=N)N)C(=O)N[C@H](C(N)=O)[C@@H](C)CC [JAL-1249, Occ-ala-Phe-Gly-Leu-Tap-Leu-Asp-Arg-Ile-NH2] (HELM PEPTIDE1{[CCCCCCCC(=O)[*:2]].[dA].F.G.L.[N[C@@H]1C[C@@H](C(=O)[*:2])N([*:1])C1].L.D.R.I.[am]}$$$$V2.0)	< 1000

same assay, conditions: group by EC50 and Emax (CNP = 100%); Table 4; read-out: Activity (group), NPR-B activation assayed with GTM-3 cells

SMILES	EC50 [nM]
CCCCCCCC(=O)N[C@H](C)C(=O)N[C@@H](Cc1ccc(Br)cc1)C(=O)N[C@H](CCCNC(=N)N)C(=O)N[C@@H](CC(C)C)C(=O)N1C[C@H](O)C[C@H]1C(=O)N[C@@H](CC(C)C)C(=O)N[C@@H](CC(=O)O)C(=O)N[C@@H](CCCNC(=N)N)C(=O)N[C@H](C(N)=O)[C@@H](C)CC [JAL-1116, Occ-ala-Pbf-arg-Leu-Hyp-Leu-Asp-Arg-Ile-NH2] (HELM PEPTIDE1{[CCCCCCCC(=O)[*:2]].[dA].[O=C([C@H](Cc1ccc(Br)cc1)N[*:1])[*:2]].[dR].L.[Hyp].L.D.R.I.[am]}$$$$V2.0)	< 1000
CCCCCCCC(=O)N[C@H](C)C(=O)N[C@@H](Cc1ccccc1)C(=O)N[C@H](CC(C)C)C(=O)N[C@@H](CC(C)C)C(=O)N1C[C@H](O)C[C@H]1C(=O)N(C)C(CC(C)(C)C)C(=O)N[C@@H](CC(=O)O)C(=O)N[C@@H](CCCNC(=N)N)C(=O)N[C@H](C(N)=O)[C@@H](C)CC (stereo partly drawn) [JAL-1283, Occ-ala-Phe-leu-Leu-Hyp-(SH-158)-Asp-Arg-Ile-NH2] (HELM PEPTIDE1{[CCCCCCCC(=O)[*:2]].[dA].F.[dL].L.[Hyp].[CN(C(CC(C)(C)C)C(=O)[*:2])[*:1]].D.R.I.[am]}$$$$V2.0)	< 1000
CCCCCCCC(=O)N[C@H](C)C(=O)N[C@@H](Cc1ccccc1)C(=O)N[C@H](CCCNC(=N)N)C(=O)N[C@@H](CC(C)C)C(=O)N1C[C@H](O)C[C@H]1C(=O)N(C)C(CC(C)(C)C)C(=O)N[C@@H](CC(=O)O)C(=O)N[C@@H](CCCNC(=N)N)C(=O)N[C@H](C(N)=O)[C@@H](C)CC (stereo partly drawn) [JAL-1284, Occ-ala-Phe-arg-Leu-Hyp-(SH-158)-Asp-Arg-Ile-NH2] (HELM PEPTIDE1{[CCCCCCCC(=O)[*:2]].[dA].F.[dR].L.[Hyp].[CN(C(CC(C)(C)C)C(=O)[*:2])[*:1]].D.R.I.[am]}$$$$V2.0)	< 1000
CCCCCCCC(=O)N[C@H](C)C(=O)N[C@@H](Cc1ccccc1)C(=O)N[C@H](CCCN(C)C)C(=O)N[C@@H](CC(C)C)C(=O)N1C[C@H](O)C[C@H]1C(=O)N(C)[C@@H](CC(C)C)C(=O)N[C@@H](CC(=O)O)C(=O)N[C@@H](CCCNC(=N)N)C(=O)N[C@H](C(N)=O)[C@@H](C)CC [JAL-1288, Occ-ala-Phe-orn(Me2)-Leu-Hyp-Nml-Asp-Arg-Ile-NH2] (HELM PEPTIDE1{[CCCCCCCC(=O)[*:2]].[dA].F.[CN(C)CCC[C@@H](N[*:1])C(=O)[*:2]].L.[Hyp].[meL].D.R.I.[am]}$$$$V2.0)	< 1000
CCCCCCCC(=O)OC(C)C(=O)N[C@@H](Cc1ccccc1)C(=O)N[C@H](CC(C)C)C(=O)N[C@@H](CC(C)C)C(=O)N1C[C@H](O)C[C@H]1C(=O)N(C)[C@@H](CC(C)C)C(=O)N[C@@H](CC(=O)O)C(=O)N[C@@H](CCCNC(=N)N)C(=O)N[C@H](C(N)=O)[C@@H](C)CC (stereo partly drawn) [JAL-1294, (AR-201-49)-Phe-leu-Leu-Hyp-Nml-Asp-Arg-Ile-NH2] (HELM PEPTIDE1{[CCCCCCCC(=O)[*:2]].[CC(O[*:1])C(=O)[*:2]].F.[dL].L.[Hyp].[meL].D.R.I.[am]}$$$$V2.0)	< 1000
CCCCCCCC(=O)N[C@H](C)C(=O)N[C@@H](Cc1ccccc1)C(=O)N[C@H](CC(C)C)C(=O)N[C@@H](CC(C)C)C(=O)N1C[C@H](N)C[C@H]1C(=O)N(C)[C@@H](CC(C)C)C(=O)N[C@@H](CC(=O)O)C(=O)N[C@@H](CCCNC(=N)N)C(=O)N[C@H](C(N)=O)[C@@H](C)CC [JAL-1296, Occ-ala-Phe-leu-Leu-Tap-Nml-Asp-Arg-Ile-NH2] (HELM PEPTIDE1{[CCCCCCCC(=O)[*:2]].[dA].F.[dL].L.[N[C@@H]1C[C@@H](C(=O)[*:2])N([*:1])C1].[meL].D.R.I.[am]}$$$$V2.0)	< 1000
CCCCCCCCN1CCC[C@H](C(=O)N[C@@H](Cc2ccccc2)C(=O)N[C@H](CCCNC(=N)N)C(=O)N[C@@H](CC(C)C)C(=O)N2C[C@H](O)C[C@H]2C(=O)N(C)[C@@H](CC(C)C)C(=O)N[C@@H](CC(=O)O)C(=O)N[C@@H](CCCNC(=N)N)C(=O)N[C@H](C(N)=O)[C@@H](C)CC)C1 [JAL-1297, Oct-Sni-Phe-arg-Leu-Hyp-Nml-Asp-Arg-Ile-NH2] (HELM PEPTIDE1{[CCCCCCCCN1CCC[C@H](C(=O)[*:2])C1].F.[dR].L.[Hyp].[meL].D.R.I.[am]}$$$$V2.0)	< 1000

Next, values leading:

EC50 [nM]	SMILES
< 1000	CCCCCCCC(=O)N[C@H](C)C(=O)N[C@@H](Cc1ccccc1)C(=O)N[C@H](CCCNC(=N)N)C(=O)N[C@@H](CC(C)C)C(=O)N1C[C@H](O)C[C@H]1C(=O)N[C@@H](CC(C)(C)C)C(=O)N[C@@H](CC(=O)O)C(=O)N[C@@H](CCCNC(=N)N)C(=O)N[C@H](C(N)=O)[C@@H](C)CC [JAL-1225, Occ-ala-Phe-arg-Leu-Hyp-Npg-Asp-Arg-Ile-NH2] (HELM PEPTIDE1{[CCCCCCCC(=O)[*:2]].[dA].F.[dR].L.[Hyp].[CC(C)(C)C[C@H](N[*:1])C(=O)[*:2]].D.R.I.[am]}$$$$V2.0)
< 1000	CCCCCCCC(=O)N[C@H](C)C(=O)N[C@@H](Cc1ccccc1)C(=O)N[C@H](CCCNC(=N)N)C(=O)N[C@@H](CC(C)C)C(=O)N1C[C@H](N)C[C@H]1C(=O)N[C@@H](CC(C)C)C(=O)N[C@@H](CC(=O)O)C(=O)N[C@@H](CCCNC(=N)N)C(=O)N[C@H](C(N)=O)[C@@H](C)CC [JAL-1250, Occ-ala-Phe-arg-Leu-Tap-Leu-Asp-Arg-Ile-NH2] (HELM PEPTIDE1{[CCCCCCCC(=O)[*:2]].[dA].F.[dR].L.[N[C@@H]1C[C@@H](C(=O)[*:2])N([*:1])C1].L.D.R.I.[am]}$$$$V2.0)
< 1000	CCCCCCCC(=O)N[C@H](C)C(=O)N[C@@H](Cc1ccccc1)C(=O)N[C@H](CO)C(=O)N[C@@H](CC(C)C)C(=O)N1C[C@H](O)C[C@H]1C(=O)N(C)[C@@H](CC(C)C)C(=O)N[C@@H](CC(=O)O)C(=O)N[C@@H](CCCNC(=N)N)C(=O)N[C@H](C(N)=O)[C@@H](C)CC [JAL-1252, Occ-ala-Phe-ser-Leu-Hyp-Nml-Asp-Arg-Ile-NH2] (HELM PEPTIDE1{[CCCCCCCC(=O)[*:2]].[dA].F.[dS].L.[Hyp].[meL].D.R.I.[am]}$$$$V2.0)
< 1000	CCCCCCCC(=O)N1CCC[C@H](C(=O)N[C@@H](Cc2ccccc2)C(=O)N[C@H](CCCCN)C(=O)N[C@@H](CC(C)C)C(=O)N2C[C@H](O)C[C@H]2C(=O)N(C)[C@@H](CC(C)C)C(=O)N[C@@H](CC(=O)O)C(=O)N[C@@H](CCCNC(=N)N)C(=O)N[C@H](C(N)=O)[C@@H](C)CC)C1 [JAL-1254, Occ-Sni-Phe-lys-Leu-Hyp-Nml-Asp-Arg-Ile-NH2] (HELM PEPTIDE1{[CCCCCCCC(=O)[*:2]].[O=C([C@H]1CCCN([*:1])C1)[*:2]].F.[dK].L.[Hyp].[meL].D.R.I.[am]}$$$$V2.0)
< 1000	CCCCCCCC(=O)N1CCC[C@H](C(=O)N[C@@H](Cc2ccccc2)C(=O)N[C@H](CCCNC(=N)N)C(=O)N[C@@H](CC(C)C)C(=O)N2C[C@H](O)C[C@H]2C(=O)N(C)[C@@H](CC(C)C)C(=O)N[C@@H](CC(=O)O)C(=O)N[C@@H](CCCNC(=N)N)C(=O)N[C@H](C(N)=O)[C@@H](C)CC)C1 [JAL-1255, Occ-Sni-Phe-arg-Leu-Hyp-Nml-Asp-Arg-Ile-NH2] (HELM PEPTIDE1{[CCCCCCCC(=O)[*:2]].[O=C([C@H]1CCCN([*:1])C1)[*:2]].F.[dR].L.[Hyp].[meL].D.R.I.[am]}$$$$V2.0)
< 1000	CCCCCCCC(=O)N1CCC[C@H](C(=O)N[C@@H](Cc2ccccc2)C(=O)N[C@H](CCCN)C(=O)N[C@@H](CC(C)C)C(=O)N2C[C@H](O)C[C@H]2C(=O)N(C)[C@@H](CC(C)C)C(=O)N[C@@H](CC(=O)O)C(=O)N[C@@H](CCCNC(=N)N)C(=O)N[C@H](C(N)=O)[C@@H](C)CC)C1 [JAL-1265, Occ-Sni-Phe-orn-Leu-Hyp-Nml-Asp-Arg-Ile-NH2] (Octanoyl-[X2]F[dOrn]L[Hyp][NMeL]DRI-NH2)
< 1000	CCCCCCCC(=O)N[C@H](C)C(=O)N(C)[C@@H](Cc1ccccc1)C(=O)N[C@H](CC(C)C)C(=O)N[C@@H](CC(C)C)C(=O)N1C[C@H](O)C[C@H]1C(=O)N(C)[C@@H](CC(C)C)C(=O)N[C@@H](CC(=O)O)C(=O)N[C@@H](CCCNC(=N)N)C(=O)N[C@H](C(N)=O)[C@@H](C)CC [JAL-1267, Occ-ala-Nmf-leu-Leu-Hyp-Nml-Asp-Arg-Ile-NH2] (HELM PEPTIDE1{[CCCCCCCC(=O)[*:2]].[dA].[meF].[dL].L.[Hyp].[meL].D.R.I.[am]}$$$$V2.0)
